The values below come from patent publication US6447997B1, “Gene coding for GADD153 as a clinical diagnostic and prognostic in cancer therapy” (Research Development Foundation, priority 1997, dated 2002).

Some results are limits rather than exact numbers.

The nature of data set [1]: Maximum tolerated dose of cDDP in the nude mouse xenograft system. In kind it is in vivo. To be noted: nude mice, i.p. How it is done:
The various aspects of the invention are also useful for xenografted tumors. Nude mice were inoculated s.c. with human UMSCC10b tumor cells, and then treated with cDDP (0, 10, 15, 30 or 50 mg/kg cDDP i.p.) when the tumors reached 1 ml in volume. FIG. 5a depicts the results obtained when tumors were harvested at 24 h after cDDP treatment. […] The time course of the change in message level in the xenografts was similar to that observed with in vitro exposure of the cells (FIG. 5b). Thus, GADD153 mRNA levels can be increased in vivo by cDDP doses around the maximum tolerated dose in this system (15-20 mg/kg cDDP).

For data set [2], the system named is stage IV head and neck cancer. The data set is described as follows: Tumor clinical response of patients to cDDP-based treatment. To be noted: i.a. cDDP with i.v. sodium thiosulfate, with or without radiation therapy. In kind it is in vivo, human. How it is done: Thirty-two patients with previously untreated stage IV head and neck cancer were treated at the UCSD Cancer Center on a phase I/II experimental protocol. All patients had been considered to have unresectable tumors. All patients received i.a. cDDP (150-200 mg/M^2) and i.v. sodium thiosulfate infusion concurrently. The details of this treatment program have been published elsewhere by the present inventors (17,18), which description is specifically incorporated herein by reference. cDDP was dissolved in 400 ml of 0.9% saline and infused over 3-5 minutes through a microcatheter placed angiographically to selectively encompass the dominant blood supply of the targeted tumor. Simultaneous with the cDDP infusion, sodium thiosulfate was infused i.v. at a dose of 9 g/m^2 dissolved in 300 ml of distilled water over 3 minutes, followed by 12 g/m^2 dissolved in one liter of distilled water over 6 h by continuous infusion to prevent severe nephrotoxicity. Treatment was repeated weekly for a total of 4 doses. In addition, 17 of the 32 patients received radiotherapy in doses of […] (×35 fractions) starting concurrently with the start of cDDP treatment. Needle aspiration or small cutting needle biopsies were obtained just before and at 24 h following the first dose of cDDP. Tumor response was assessed at 2 months using criteria based on physical examination, repeat computed tomography/magnetic resonance imaging studies, and repeat endoscopy and biopsy.

The subject of data set [3] is GADD153 mRNA. The data set is described as follows: GADD153 mRNA level in UMSCC10b cells and cDDP-resistant sublines after cDDP exposure, RT-PCR. In kind it is cell-based, human. As for the experimental part: In order to permit use of needle aspiration biopsies of tumors, the highly sensitive technique of RT-PCR rather than the less sensitive technique of Northern blot analysis was utilized throughout for quantitation of mRNA. The magnitude of the change in GADD153 mRNA level as a function of cisplatin (cDDP) concentration was determined by treating UMSCC10b cells with 0.1, 1, 10, or 100 μM cDDP for 1 h and quantifying GADD153 mRNA in untreated and treated cells harvested at 24 h by RT-PCR. The procedure is detailed in the attached examples. The results in FIG. 1 indicate that a concentration-dependent magnitude of increase in GADD153 mRNA levels reached 6-fold at the highest cDDP concentration tested. FIG. 2 depicts the time course of increase in GADD153 following a 1 h exposure to 100 μM cDDP. An increase in GADD153 mRNA level was evident at 12 h after cDDP exposure, and the peak occurred at 24 h followed by a decline to baseline levels by 96 h. β-ACTIN was used as an internal standard to normalize the data.
Without being held to a particular mechanism of action, the present inventors believe that the magnitude of increase in GADD153 mRNA level reflects the extent of tumor cell damage in a tumor treated with a chemotherapeutic agent. Supportive evidence was obtained using sublines of UMSCC10b selected for cDDP resistance. The parental cells, the 3-fold resistant subline UMSCC10b-Pt/S6 (15,16), and the 6-fold resistant subline UMSCC10b-Pt/S15 (15,16) were exposed to 2, 7, 12 μM cDDP for 1 h. These levels of exposure correspond to the IC10, IC50, and IC70 for the parental cell line, respectively.
To assure that the resistant variants had not lost their capacity to activate the GADD153 gene, and to validate the change in GADD153 level as a molecular marker of tumor injury in drug resistant as well as sensitive cells, the effect of cDDP applied at equitoxic concentrations was compared between the parental cells and the two resistant sublines.
To determine the time course of the change in GADD153 mRNA level, UMSCC10b cells were incubated with 100 μM cDDP for 1 h and total RNA was extracted at 0, 1, 2, 6, 12, 24, 48, 72 and 96 h after treatment. To analyze the effect of cDDP concentration on the expression of GADD153 , UMSCC10b cells were incubated for 1 h with various cDDP concentrations (0, 0.1, 1, 10, 100 and 1000 μM) and RNA was extracted 24 h after cDDP exposure.
UMSCC10b cells were harvested in 10 ml of denaturing solution (4 M guanidinium thiocyanate, 25 mM sodium citrate, pH 7, 0.5% sarcosyl, and 0.1 M 2-mercaptoethanol. After adding 1 ml of 2 M sodium acetate (pH 4), 10 ml of water-saturated phenol (pH 4) and 2 ml of chloroform:isoamyl alcohol (49:1) to the denatured cells, they were mixed thoroughly, placed on ice for 15 min, and centrifuged at 2800 rpm for 20 min at 4° C. The aqueous phase was collected and mixed with 10 ml of isopropyl alcohol, placed for 1 h at −20° C. and centrifuged. The pellet was dissolved in 1.8 ml of denaturing solution and 2 ml of isopropyl alcohol, placed for 1 h at −20° C. and centrifuged. The pellet was washed with 1 ml of 80% ethanol and then centrifuged at 5000 rpm for 10 min at room temperature. The RNA pellet was dried for 20 min in a tissue culture hood and resuspended in 100 μl of DEPC-treated water. Of this solution, 50 μl was used immediately for cDNA synthesis.
GADD153 message levels were quantified using a modification of the technique reported by Horikoshi et al (20). Total RNA acquired from the biopsies or xenografts was reverse-transcribed using random hexamers to produce cDNA (20,21,22). Serial dilutions of the CDNA were made and 5 μl of each dilution was placed in a sterile 0.5 ml Eppendorf tube. […]

The mark [4] stands for this setting: UMSCC10b cells, 1 h exposure to 100 μM cDDP.

In data set [1], `[NH2][Pt]([NH2])([Cl])[Cl]` [cDDP, cisplatin] showed a maximum tolerated dose of 15 to 20 mg/kg. Further, in data set [2] (assessed at 2 months), the “patients who achieved a partial regression (PR)” value is 8 of the 32 and the “patients who attained a complete regression of the tumor (CR)” value is on record as 17 of the 32. In addition, the “patients who had tumor progression (NR)” value in data set [2] (of 32 patients) was determined as 7 patients. Also, the “magnitude of the increase in GADD153 mRNA level” value in data set [3] (3-fold resistant variant UMSCC10b-Pt/S6, 2, 7, 12 μM cDDP for 1 h (equimolar)) is given as “lower than in the parental cells”. In data set [3] (6-fold resistant variant UMSCC10b-Pt/S15, 2, 7, 12 μM cDDP for 1 h (equimolar)), the “expression of GADD153” value is “did not increase above its baseline level”. In data set [3] (setting [4]), the “time at which increase in GADD153 mRNA level was evident” value was 12 h, the “time of decline of GADD153 mRNA to baseline levels” value is given as at most 96 h and the “time of peak GADD153 mRNA level” value was 24 h. Moreover, in data set [3] (UMSCC10b cells, 1 h exposure, highest cDDP concentration tested (100 μM), harvested at 24 h), the “magnitude of increase in GADD153 mRNA levels” value came out at 6 fold. Also, the “change in expression of GADD153 at equitoxic concentrations” value in data set [3] (parental cells and two resistant sublines, IC10, IC50, IC70) is listed as “no difference between the cell lines”.
